Data from ChEMBL document CHEMBL1909046, “DrugMatrix in vitro pharmacology data”.

What was measured:
[1] = target: Beta-2 adrenergic receptor (Homo sapiens, UniProt P07550); experiment: DRUGMATRIX: Adrenergic beta2 radioligand binding (ligand: [3H] CGP-12177); assay type: cell membranes, CHO, Membrane; conditions: cho; Not Active = under 50% inhibition at 10 µM
[2] = target: T1, Type-2 angiotensin II receptor (Homo sapiens, UniProt P50052); assay type: cell-based; conditions: cho-k1; also: in other assays of this panel Not Active means under 50% inhibition at 10 µM
T1 sequence (P50052 whole entry): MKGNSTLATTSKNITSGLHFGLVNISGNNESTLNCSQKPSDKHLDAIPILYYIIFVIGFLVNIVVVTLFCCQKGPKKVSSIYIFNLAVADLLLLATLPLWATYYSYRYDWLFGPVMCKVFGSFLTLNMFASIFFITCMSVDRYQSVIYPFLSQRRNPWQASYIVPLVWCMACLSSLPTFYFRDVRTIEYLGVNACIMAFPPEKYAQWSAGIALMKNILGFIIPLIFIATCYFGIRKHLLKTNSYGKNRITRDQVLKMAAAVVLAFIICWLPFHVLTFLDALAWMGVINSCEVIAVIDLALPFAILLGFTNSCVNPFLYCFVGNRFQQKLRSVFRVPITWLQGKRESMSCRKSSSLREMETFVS

[3] = DRUGMATRIX: Atrial Natriuretic Factor (ANF) radioligand binding (ligand: [125I] ANF (rat)); assay type: cell membranes, Cavia porcellus, Dunkin-Hartley, Adrenal gland, Membrane; conditions: Not Active = under 50% inhibition at 10 µM
[4] = target: T2, Calcitonin receptor (Homo sapiens, UniProt P30988); assay type: cell membranes, Membrane; conditions: t47d; also: in other assays of this panel Not Active means under 50% inhibition at 10 µM
T2 sequence (P30988 whole entry): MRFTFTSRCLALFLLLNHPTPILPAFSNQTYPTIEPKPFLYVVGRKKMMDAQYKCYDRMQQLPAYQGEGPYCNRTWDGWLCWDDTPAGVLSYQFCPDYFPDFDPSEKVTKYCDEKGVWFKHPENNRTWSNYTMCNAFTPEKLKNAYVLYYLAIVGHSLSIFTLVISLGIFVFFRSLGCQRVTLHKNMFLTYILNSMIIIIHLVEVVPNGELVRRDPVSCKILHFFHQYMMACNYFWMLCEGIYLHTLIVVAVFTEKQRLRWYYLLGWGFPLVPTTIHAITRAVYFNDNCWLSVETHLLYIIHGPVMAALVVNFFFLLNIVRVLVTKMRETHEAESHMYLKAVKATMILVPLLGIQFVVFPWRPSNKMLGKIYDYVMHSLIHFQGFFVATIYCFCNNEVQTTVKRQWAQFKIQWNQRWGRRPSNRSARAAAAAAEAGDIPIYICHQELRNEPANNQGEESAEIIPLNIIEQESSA

[5] = target: Insulin receptor (Rattus norvegicus, UniProt P15127); assay type: cell membranes, Wistar, Liver, Membrane; also: in other assays of this panel Not Active means under 50% inhibition at 10 µM
Sequence of Insulin receptor (P15127 27-759 limits assumed): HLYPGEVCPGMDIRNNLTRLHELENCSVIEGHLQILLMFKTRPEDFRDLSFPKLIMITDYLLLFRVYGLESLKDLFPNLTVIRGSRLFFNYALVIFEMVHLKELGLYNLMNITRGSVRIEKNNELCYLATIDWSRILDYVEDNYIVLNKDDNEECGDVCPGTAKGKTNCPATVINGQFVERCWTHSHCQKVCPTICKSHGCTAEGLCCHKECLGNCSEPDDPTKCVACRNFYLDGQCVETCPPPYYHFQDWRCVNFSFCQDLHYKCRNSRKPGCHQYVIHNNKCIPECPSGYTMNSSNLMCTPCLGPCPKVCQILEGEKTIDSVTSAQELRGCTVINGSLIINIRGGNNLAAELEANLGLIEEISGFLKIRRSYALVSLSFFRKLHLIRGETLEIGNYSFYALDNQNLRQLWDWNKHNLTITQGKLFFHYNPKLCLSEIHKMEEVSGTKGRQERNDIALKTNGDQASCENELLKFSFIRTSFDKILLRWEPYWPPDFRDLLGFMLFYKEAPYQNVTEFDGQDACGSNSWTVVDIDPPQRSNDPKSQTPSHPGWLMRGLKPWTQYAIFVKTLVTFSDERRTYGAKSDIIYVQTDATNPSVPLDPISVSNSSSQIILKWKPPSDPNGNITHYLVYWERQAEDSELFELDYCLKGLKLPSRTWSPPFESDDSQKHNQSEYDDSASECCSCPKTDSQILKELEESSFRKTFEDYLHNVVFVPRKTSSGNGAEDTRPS
Sequence of Insulin receptor (P15127 764-1383 limits assumed): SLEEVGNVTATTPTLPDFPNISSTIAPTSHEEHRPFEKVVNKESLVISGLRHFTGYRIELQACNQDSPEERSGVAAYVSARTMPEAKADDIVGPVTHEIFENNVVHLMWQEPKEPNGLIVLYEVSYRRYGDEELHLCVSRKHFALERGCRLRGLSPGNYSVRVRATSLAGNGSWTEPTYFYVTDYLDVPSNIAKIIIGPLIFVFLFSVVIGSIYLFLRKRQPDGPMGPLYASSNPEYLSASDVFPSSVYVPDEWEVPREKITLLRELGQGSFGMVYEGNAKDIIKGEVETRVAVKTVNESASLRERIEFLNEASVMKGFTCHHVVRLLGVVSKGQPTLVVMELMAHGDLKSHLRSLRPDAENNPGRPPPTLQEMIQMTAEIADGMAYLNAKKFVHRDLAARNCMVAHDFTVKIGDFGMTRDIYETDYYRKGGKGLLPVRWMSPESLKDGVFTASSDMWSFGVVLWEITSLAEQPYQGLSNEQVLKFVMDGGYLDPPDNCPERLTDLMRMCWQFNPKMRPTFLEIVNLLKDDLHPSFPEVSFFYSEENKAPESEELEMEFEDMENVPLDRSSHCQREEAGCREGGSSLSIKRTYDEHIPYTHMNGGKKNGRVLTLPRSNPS

[6] = target: T3, Angiotensin-converting enzyme (Oryctolagus cuniculus, UniProt P12822); experiment: biochemical; assay type: tissue-based, Lung;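 also: enzymatic inhibition of angiotensin-converting enzyme measured with FAPGG as the substrate; in other assays of this panel Not Active means under 50% inhibition at 10 µM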
T3 sequence (P12822 whole entry): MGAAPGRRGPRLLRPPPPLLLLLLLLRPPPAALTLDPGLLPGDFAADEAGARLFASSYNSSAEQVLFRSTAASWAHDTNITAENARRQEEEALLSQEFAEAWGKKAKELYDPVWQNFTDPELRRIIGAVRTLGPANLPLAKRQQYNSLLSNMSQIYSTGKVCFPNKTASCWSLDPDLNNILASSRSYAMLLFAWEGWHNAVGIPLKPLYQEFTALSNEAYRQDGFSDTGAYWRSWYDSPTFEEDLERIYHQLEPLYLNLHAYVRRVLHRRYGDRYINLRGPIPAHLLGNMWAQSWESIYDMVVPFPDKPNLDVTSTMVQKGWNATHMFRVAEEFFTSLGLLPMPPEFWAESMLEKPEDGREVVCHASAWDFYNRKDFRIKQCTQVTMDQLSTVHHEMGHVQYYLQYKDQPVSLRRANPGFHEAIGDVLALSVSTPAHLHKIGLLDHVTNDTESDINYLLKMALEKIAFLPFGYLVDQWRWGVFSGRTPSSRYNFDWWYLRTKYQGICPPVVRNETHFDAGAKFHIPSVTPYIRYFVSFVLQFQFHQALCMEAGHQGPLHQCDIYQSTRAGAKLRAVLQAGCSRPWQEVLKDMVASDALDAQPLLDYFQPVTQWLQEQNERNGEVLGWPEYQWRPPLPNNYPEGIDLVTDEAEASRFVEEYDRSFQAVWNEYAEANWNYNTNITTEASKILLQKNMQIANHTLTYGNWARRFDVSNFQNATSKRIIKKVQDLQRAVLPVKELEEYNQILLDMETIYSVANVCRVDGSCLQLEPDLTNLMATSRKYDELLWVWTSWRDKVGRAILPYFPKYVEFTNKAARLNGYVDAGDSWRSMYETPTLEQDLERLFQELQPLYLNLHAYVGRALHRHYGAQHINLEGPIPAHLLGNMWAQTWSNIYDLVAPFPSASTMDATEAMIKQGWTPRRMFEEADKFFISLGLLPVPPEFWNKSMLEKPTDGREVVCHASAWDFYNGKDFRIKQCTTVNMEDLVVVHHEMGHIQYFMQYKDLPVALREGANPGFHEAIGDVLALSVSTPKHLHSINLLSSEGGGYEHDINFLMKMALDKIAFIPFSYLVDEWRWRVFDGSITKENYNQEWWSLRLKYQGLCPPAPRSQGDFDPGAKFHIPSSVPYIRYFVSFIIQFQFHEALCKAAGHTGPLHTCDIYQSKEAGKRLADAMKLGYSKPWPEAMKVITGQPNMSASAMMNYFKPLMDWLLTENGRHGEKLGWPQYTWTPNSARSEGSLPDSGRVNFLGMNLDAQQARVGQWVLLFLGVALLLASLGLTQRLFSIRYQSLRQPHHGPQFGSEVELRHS

[7] = target: T4, Estrogen receptor (Homo sapiens, UniProt P03372); conditions: sf9; also: in other assays of this panel Not Active means under 50% inhibition at 10 µM
T4 sequence (P03372 whole entry): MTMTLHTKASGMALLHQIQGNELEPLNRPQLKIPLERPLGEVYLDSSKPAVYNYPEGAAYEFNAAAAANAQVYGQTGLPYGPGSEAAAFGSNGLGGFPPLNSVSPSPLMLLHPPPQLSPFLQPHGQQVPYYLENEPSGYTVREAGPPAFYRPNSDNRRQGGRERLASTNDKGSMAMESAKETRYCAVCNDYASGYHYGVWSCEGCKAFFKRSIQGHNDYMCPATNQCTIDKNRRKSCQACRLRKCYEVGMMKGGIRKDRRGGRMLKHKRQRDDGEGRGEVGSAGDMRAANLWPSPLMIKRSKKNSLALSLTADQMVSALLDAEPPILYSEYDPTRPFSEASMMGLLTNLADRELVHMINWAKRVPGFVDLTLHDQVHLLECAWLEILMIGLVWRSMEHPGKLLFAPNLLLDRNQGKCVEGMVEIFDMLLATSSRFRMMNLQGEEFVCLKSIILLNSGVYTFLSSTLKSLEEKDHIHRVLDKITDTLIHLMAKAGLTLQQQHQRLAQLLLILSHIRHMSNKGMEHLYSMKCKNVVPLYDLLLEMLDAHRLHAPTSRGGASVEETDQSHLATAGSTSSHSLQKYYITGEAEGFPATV

Sequence of Beta-2 adrenergic receptor (P07550 whole entry): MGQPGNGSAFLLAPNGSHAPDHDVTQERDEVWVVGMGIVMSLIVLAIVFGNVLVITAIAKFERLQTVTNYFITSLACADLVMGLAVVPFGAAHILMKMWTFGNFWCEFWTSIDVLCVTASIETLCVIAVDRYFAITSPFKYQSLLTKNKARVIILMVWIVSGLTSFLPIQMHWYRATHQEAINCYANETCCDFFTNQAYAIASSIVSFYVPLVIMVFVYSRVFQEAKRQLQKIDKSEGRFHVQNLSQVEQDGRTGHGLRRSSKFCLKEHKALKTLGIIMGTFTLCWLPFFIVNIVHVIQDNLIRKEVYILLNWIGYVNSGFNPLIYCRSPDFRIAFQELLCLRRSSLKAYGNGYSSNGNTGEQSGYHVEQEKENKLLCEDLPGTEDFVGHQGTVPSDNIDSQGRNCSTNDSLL

COc1cc(/C=C/C(=O)O)ccc1O [FERULATE]
Not Active: IC50 [1] | IC50 [2] | IC50 [3] | Ki [3] | IC50 [4] | IC50 [5] | IC50 [6] | IC50 [7]

CC(C)NCC(O)COc1ccc(CC(N)=O)cc1 (stereo not drawn) [ATENOLOL]
Not Active: IC50 [2] | IC50 [3] | Ki [3] | IC50 [4] | IC50 [5] | IC50 [6] | IC50 [7]

O=C(O)COC(=O)Cc1ccccc1Nc1c(Cl)cccc1Cl [ACECLOFENAC]
Not Active: IC50 [1] | IC50 [2] | IC50 [3] | Ki [3] | IC50 [4] | IC50 [5] | IC50 [6] | IC50 [7]

Cl.NC[C@H]1CC[C@H](C(=O)Oc2ccc(CCC(=O)O)cc2)CC1 [CETRAXATE HYDROCHLORIDE]
Not Active: IC50 [1] | IC50 [2] | IC50 [3] | Ki [3] | IC50 [4] | IC50 [5] | IC50 [6] | IC50 [7]

CC(=O)[C@]1(O)Cc2c(O)c3c(c(O)c2[C@@H](O[C@H]2C[C@H](N)[C@H](O)[C@H](C)O2)C1)C(=O)c1ccccc1C3=O [IDARUBICIN]
Not Active: IC50 [1] | IC50 [2] | IC50 [3] | Ki [3] | IC50 [4] | IC50 [5] | IC50 [6] | IC50 [7]

C[C@@H]1[C@H](O)[C@@H](C)/C=C/C=C/C=C/C=C/C=C/C=C/C=C/[C@H](O[C@@H]2O[C@H](C)[C@@H](O)[C@H](N)[C@@H]2O)C[C@@H]2O[C@](O)(C[C@@H](O)C[C@@H](O)[C@H](O)CC[C@@H](O)C[C@@H](O)CC(=O)O[C@H]1C)C[C@H](O)[C@H]2C(=O)O [AMPHOTERICIN B]
Not Active: IC50 [1] | IC50 [2] | IC50 [3] | Ki [3] | IC50 [4] | IC50 [5] | IC50 [6] | IC50 [7]

COc1ccccc1OCCNCC(O)COc1cccc2[nH]c3ccccc3c12 (stereo not drawn) [CARVEDILOL]
Not Active: IC50 [2] | IC50 [3] | Ki [3] | IC50 [4] | IC50 [5] | IC50 [6] | IC50 [7]

CNC[C@H](O)c1ccc(O)c(O)c1 [EPINEPHRINE]
Not Active: IC50 [2] | IC50 [3] | Ki [3] | IC50 [4] | IC50 [5] | IC50 [6] | IC50 [7]

CC(CN1c2ccccc2Sc2ccccc21)N(C)C (stereo not drawn) [PROMETHAZINE]
Not Active: IC50 [1] | IC50 [2] | IC50 [3] | Ki [3] | IC50 [4] | IC50 [5] | IC50 [6]

Nc1ccc(Cc2ccc(N)cc2)cc1
Not Active: IC50 [1] | IC50 [2] | IC50 [3] | Ki [3] | IC50 [4] | IC50 [5] | IC50 [6]

CC[C@H]1OC(=O)[C@H](C)[C@@H](O[C@H]2C[C@@](C)(OC)[C@@H](O)[C@H](C)O2)[C@H](C)[C@@H](O[C@@H]2O[C@H](C)C[C@H](N(C)C)[C@H]2O)[C@](C)(O)C[C@@H](C)C(=O)[C@H](C)[C@@H](O)[C@]1(C)O [ERYTHROMYCIN]
Not Active: IC50 [1] | IC50 [2] | IC50 [3] | Ki [3] | IC50 [4] | IC50 [5] | IC50 [6]

C[N+](C)(C)CCOC(N)=O.[Cl-] [CARBACHOL]
Not Active: IC50 [1] | IC50 [2] | IC50 [3] | Ki [3] | IC50 [4] | IC50 [5] | IC50 [6]

CCN(CCO)CCCC(C)Nc1ccnc2cc(Cl)ccc12 (stereo not drawn) [HYDROXYCHLOROQUINE]
Not Active: IC50 [1] | IC50 [2] | IC50 [3] | Ki [3] | IC50 [4] | IC50 [5] | IC50 [6]

Cc1ccnc2c1NC(=O)c1cccnc1N2C1CC1 [NEVIRAPINE]
Not Active: IC50 [1] | IC50 [2] | IC50 [3] | Ki [3] | IC50 [4] | IC50 [5] | IC50 [6]
